Reference: article PMC8811960, “A Novel 2-Carbon-Linked Dimeric Artemisinin With Potent Antileukemic Activity and Favorable Pharmacology” (Frontiers in Oncology, 2022)

Key:
TF1 = assay: alamarBlue growth inhibition, TF1; format: cell-based; settings: Homo sapiens, TF-1, TF1, 48h, mean of 2 independent assays ± SD
Protocol: Cytotoxicity was assessed using alamarBlue assays (Life Technologies, Grand Island, NY) following manufacturer’s guidelines. Cell death was verified by Annexin V/7-aminoactinomycin D (7AAD) staining (BioLegend, San Diego, CA) per manufacturer’s guidelines.

[1] = Stability in mouse plasma (EDTA); format: in vitro ADME; settings: 10 µM, 37°C, 1h
Protocol: (§1) The metabolic stability of ART631 was assessed in human and mouse plasma and liver microsomes (LM). For phase I microsomal stability assays, analogs (10 µM in <1% acetonitrile) were incubated in PBS containing liver microsomes, with or without cofactors ([22]). Microsomal controls (without cofactors) were used to determine non-enzymatic degradation. All experiments were incubated at 37°C for 1h and performed in duplicate. Reactions were stopped with acetonitrile and analyzed as described below.
ART631 was extracted from 25 µL plasma or microsomal solutions with 100 µL acetonitrile containing artemisinin (i.e. the natural product) as internal standard. […] Mobile phase A was ammonium acetate (2mM) containing 0.1% formic acid, and mobile phase B was acetonitrile containing 0.1% formic acid. The gradient started with mobile phase B and was held at 40% for 0.5 minutes with a flow rate of 0.4 mL/min, then increased to 100% over 1.5 minutes and held for 2.0 minutes, and finally returned back to 40% mobile phase B and allowed to equilibrate for 2.0 minutes. An AB Sciex 5500 triple quadrupole mass spectrometer operated in positive electrospray ionization mode was used for the detection of ART631. For stability studies, the ratio of ART631 to the internal standard, artemisinin, was assessed. […]

[2] = Phase I microsomal stability, mouse liver microsomes; format: in vitro ADME
Protocol: as §1
ART631 was extracted from 25 µL plasma or microsomal solutions with 100 µL acetonitrile containing artemisinin (i.e. the natural product) as internal standard. […] Mobile phase A was ammonium acetate (2mM) containing 0.1% formic acid, and mobile phase B was acetonitrile containing 0.1% formic acid. The gradient started with mobile phase B and was held at 40% for 0.5 minutes with a flow rate of 0.4 mL/min, then increased to 100% over 1.5 minutes and held for 2.0 minutes, and finally returned back to 40% mobile phase B and allowed to equilibrate for 2.0 minutes. An AB Sciex 5500 triple quadrupole mass spectrometer operated in positive electrospray ionization mode was used for the detection of ART631. For stability studies, the ratio of ART631 to the internal standard, artemisinin, was assessed. Calibration curves for ART631 were computed using the ratio of the peak area to that of the internal standard by using a quadratic equation with a 1/x^2 weighting function over the range of 8-1585 nM with dilutions of up to 1:10 (v/v).

AML45 PDX = assay: luc-labeled AML45 patient-derived xenograft; format: in vivo, NRG mice; settings: ART631 monotherapy p=0.0029
Excerpt: Immunodeficient NOD-Rag1^nullIL2rg^null (NRG) mice were purchased from Jackson Laboratory (Bar Harbor, ME), bred and housed at the University of Maryland Baltimore. Similar to our previous publication ([20]). mice were transplanted IV with luc-labeled human AML cell lines or cryopreserved AML patient cells on day -10, and baseline total body luminescence was quantified on day 0 by Xenogen bioluminescence imaging (Xenogen IVIS Spectrum; PerkinElmer, Waltham, MA). Mice were allocated to treatment groups so that each group had similar average day 0 luminescence, then groups were administered drugs per oral (PO; gavage). Luminescence of each mouse was assessed over time and compared with that mouse’s day 0 luminescence (fold-change AML burden). Clinical behavior, appearance, weight, and survival were also monitored.
We then compared the efficacy of 15 mg/kg/d ART631 monotherapy, versus 150 mg/kg/d VEN plus 30 mg/kg/d SOR, versus ART631 combined with VEN plus SOR (i.e. SAV) at the previously indicated doses, using a luc-labeled AML45 PDX model ( Figure 9A ). […]
Figure 9 VEN plus SOR plus ART631 inhibited growth of an AML PDX. […] (A) After Xenogen quantification of baseline total body luminescence on day 0, mice were placed into balanced experimental groups prior to drug administration via gavage, then treated per our previously established MTD PO x 5 day schedule (5 days on, 9 days off). […]

C=CCO/N=C(/C[C@H]1O[C@@H]2O[C@@]3(C)CC[C@H]4[C@H](C)CC[C@@H]([C@H]1C)[C@@]24OO3)[C@H]1O[C@@H]2O[C@@]3(C)CC[C@H]4[C@H](C)CC[C@@H]([C@H]1C)[C@@]24OO3 [ART631]
IC50 (TF1): 27 ± 2 nM
percentage remaining, Plasma (EDTA) Mouse [1]: 62%
percentage remaining, Phase I Metabolism MLM NADPH(+) ([2]; 10 µM, 37°C, 1h, with cofactors): 35%
percentage remaining, Phase I Metabolism MLM NADPH(-) ([2]; 10 µM, 37°C, 1h, without cofactors): 60%
degradation in mouse liver microsomes with co-factors ([2]; NADPH-dependent phase I metabolism): ~ 40%
survival versus vehicle (AML45 PDX): statistically significant increase in survival
